The values below come from paper PMC9071130, “Functional analysis of LFRFamide signaling in Pacific abalone, Haliotis discus hannai” (PLoS ONE, 2022).

The subject of one test is Pacific abalone. The following applies: injection of NPF peptide; earlier paper of the authors; cited from earlier work. An excerpt:
Along with insect sNPFs, LFRFa peptides convert feeding motor programs from ingestive to egestive, depress feeding muscle contractions in Aplysia californica, and increase rectal contractions in Sepia officinalis.

The test system of test [1] is Hdh-sNPFR. The test can be described thus: Internalization of HA-tagged Hdh-sNPFR in HEK293 cells (immunocytochemistry, confocal microscopy). The format is cell-based, Haliotis discus hannai. As to conditions: HEK293 cells with HA-tagged Hdh-sNPFR; peptide 10^−6 M; 5 and 30 min. The method, then: To detect Hdh-sNPFR expression, HEK293 cells were seeded on poly-D-lysine hydrobromide (Sigma-Aldrich)-coated coverslips in 24-well plates. The Hdh-sNPFR expression plasmid was transfected into HEK293 cells as described above. At approximately 30 h post-transfection, the cells were treated with LFRFa peptides and NPF for 5 min and 30 min, respectively. The cells were fixed with 4% paraformaldehyde for 10 min, followed by treatment with 1% bovine serum albumin in phosphate-buffered saline with 0.1% Tween 20 (PBST) for 30 min at room temperature to block non-specific binding. The HEK293 cells were treated with a monoclonal HA primary antibody (1:5000 dilution; H9658, Sigma-Aldrich) in PBST at 4°C for 16 h. After washing with PBST three times for 10 min each, the cells were treated with a secondary antibody [anti-mouse IgG (H+L), F(ab’)2Fragment (AlexaFluor 488 Conjugate), 1:2000 dilution; Cell Signaling, Danvers, MA, USA] in PBST at room temperature for 1 h in a light-blocked chamber. After washing with PBST three times for 10 min each, the cells were mounted with a mounting medium including DAPI (Abcam, Cambridge, UK). The expression of Hdh-sNPFR was monitored with a confocal laser-scanning microscope (FV3000, Olympus, Tokyo, Japan).
Fig 7 Subcellular localization and internalization of Hdh-sNPFR. […]

For test [2], the system named is Hdh-sNPFR. The test can be described thus: CRE-Luc reporter activation in Hdh-sNPFR-transfected HEK293 cells. It counts as cell-based, Haliotis discus hannai. As to conditions: peptide 10^−6 M, 6 h, no forskolin, n = 3. The protocol: (§1) HEK293 cells were grown in monolayer culture in Dulbecco’s modified Eagle medium (Gibco, Loughborough, UK) with 10% fetal bovine serum (HyClone, GE Healthcare, Chicago, IL, USA) and 1% penicillin/streptomycin (Invitrogen, Carlsbad, CA, USA) at 37°C, 5% CO2. HEK293 cells were seeded in 24-well plates and the transfection was performed using a formulated polyethylenimine solution (Sigma-Aldrich, St. Louis, MO, USA) as previously described. […] The cells were harvested with a cell lysis buffer (Promega, Madison, WI, USA) and luciferase activities were assayed using a microplate luminometer (Berthold, Bad Wildbad, Germany) and normalized by β-galactosidase values detected on a microplate reader (Tecan, Männedorf, Switzerland) at 405 nm.
(§2) Fig 5 Effect of LFRFa peptides on luciferase reporter activities in Hdh-sNPFR-expressing HEK293 cells. […] Intracellular cAMP accumulation was measured by CRE-Luc reporter activities in Hdh-sNPFR- or maternal plasmid pcDNA3-transfected HEK293 cells. The relative activities were determined in response to 10^−5 M of FKN and 10^−6 M of peptide as indicated. […]

Test [3] relates to Hdh-sNPFR. Nature of the test: SRE-Luc reporter activation in Hdh-sNPFR-transfected HEK293 cells. As to conditions: peptide 10^−6 M, 6 h, n = 3. It counts as cell-based, Haliotis discus hannai. The protocol: as §1, §2

On to “QDAMLAPPDRPSEFRSPDQLRQYLKALNEYYAIVGRPRF-NH2 [NPF, Pacific abalone neuropeptide F, 39 amino acids, amidated, used as comparison peptide]”, for which the “Food consumption in Pacific abalone after NPF injection” value in the test on Pacific abalone is given as “increased food consumption”. In addition, in the test on Hdh-sNPFR [1], the “Internalization of Hdh-sNPFR from cell membrane to cytoplasm” value is listed as “did not undergo redistribution from the cell surface to the cytoplasm”. Also, the “Activation of CRE-Luc reporter” value in the test with Hdh-sNPFR [2] was “did not activate”. For the same substance, the “Activation of SRE-Luc reporter” value in the test with Hdh-sNPFR [3] is reported as “did not activate”.
